# According to publication PMC9942120 (iScience, 2023):
# Legend:
# Experiment in all cases: direct LC-MS/MS profiling of modified tryptic peptides
# Assay type in all cases: cell-based
# [1] = target: T1, HMOX2 (Homo sapiens, UniProt P30519); details: covalent at Cys282; H358 cells, […] AMG510, […] h (methods print […] h)
# T1 sequence (P30519 2-316): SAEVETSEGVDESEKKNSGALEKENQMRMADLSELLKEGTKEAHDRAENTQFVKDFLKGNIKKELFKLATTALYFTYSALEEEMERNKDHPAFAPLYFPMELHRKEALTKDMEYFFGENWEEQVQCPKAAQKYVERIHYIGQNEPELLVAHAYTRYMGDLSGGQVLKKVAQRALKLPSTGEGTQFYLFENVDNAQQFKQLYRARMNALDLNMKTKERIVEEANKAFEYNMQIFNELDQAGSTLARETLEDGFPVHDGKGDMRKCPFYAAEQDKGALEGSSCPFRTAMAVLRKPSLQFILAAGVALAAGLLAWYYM
# [2] = target: T2, PLOD3 (Homo sapiens, UniProt O60568); details: covalent at Cys691; H358 cells, […] AMG510, […] h (methods print […] h)
# T2 sequence (O60568 25-738): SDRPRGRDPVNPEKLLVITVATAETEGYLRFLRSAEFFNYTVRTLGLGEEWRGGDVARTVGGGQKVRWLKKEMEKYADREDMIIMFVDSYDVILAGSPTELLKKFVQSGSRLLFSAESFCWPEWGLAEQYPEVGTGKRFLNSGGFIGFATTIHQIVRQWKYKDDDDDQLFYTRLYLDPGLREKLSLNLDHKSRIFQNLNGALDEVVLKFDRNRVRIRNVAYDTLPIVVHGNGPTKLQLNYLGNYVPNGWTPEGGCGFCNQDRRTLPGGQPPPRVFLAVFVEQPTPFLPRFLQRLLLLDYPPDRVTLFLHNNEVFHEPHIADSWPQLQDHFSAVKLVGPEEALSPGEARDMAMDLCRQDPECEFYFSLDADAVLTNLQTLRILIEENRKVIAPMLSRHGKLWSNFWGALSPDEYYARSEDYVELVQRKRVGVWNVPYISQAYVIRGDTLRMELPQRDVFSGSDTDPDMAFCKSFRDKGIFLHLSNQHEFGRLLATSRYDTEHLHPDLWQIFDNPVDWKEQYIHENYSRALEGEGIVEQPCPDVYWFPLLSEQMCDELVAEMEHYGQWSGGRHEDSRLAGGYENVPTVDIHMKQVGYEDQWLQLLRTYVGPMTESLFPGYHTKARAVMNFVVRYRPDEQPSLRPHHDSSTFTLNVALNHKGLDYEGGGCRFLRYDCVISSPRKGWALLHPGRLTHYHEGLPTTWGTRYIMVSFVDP
# [3] = target: ANXA2 (Homo sapiens, UniProt P07355); details: covalent at Cys9; H358 cells, […] AMG510, […] h (methods print […] h)
# Chain of ANXA2 (P07355 2-339): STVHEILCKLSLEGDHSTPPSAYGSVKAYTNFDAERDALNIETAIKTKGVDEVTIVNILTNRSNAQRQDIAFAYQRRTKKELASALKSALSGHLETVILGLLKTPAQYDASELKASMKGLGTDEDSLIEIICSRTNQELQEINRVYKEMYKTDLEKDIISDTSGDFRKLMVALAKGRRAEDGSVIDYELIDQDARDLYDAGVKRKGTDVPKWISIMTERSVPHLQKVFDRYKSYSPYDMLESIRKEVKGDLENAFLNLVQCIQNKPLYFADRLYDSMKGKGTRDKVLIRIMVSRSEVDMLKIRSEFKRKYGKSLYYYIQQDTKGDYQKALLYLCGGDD
structure (smiles),measurement,setting,value
C=CC(=O)N1CCN(c2nc(=O)n(-c3c(C)ccnc3C(C)C)c3nc(-c4c(O)cccc4F)c(F)cc23)[C@@H](C)C1 [AMG510],direct LC-MS/MS profiling of modified tryptic peptides,[1],off-targets that were identified in previous studies (RTN4 C1101 and HMOX2 C282)
same,direct LC-MS/MS profiling of modified tryptic peptides,[2],"They included enzymes (PLOD3 C691, RPE C5, SPTLC2 C99, UBE2O C370, and TK1 C3)"
same,direct LC-MS/MS profiling of modified tryptic peptides,[3],multifunctional membrane-binding protein (ANXA2 C9)
